Where a SMILES comes first, the peptide text is derived from it. [ ]: non-standard residue; d: D form. pT = C[C@@H](OP(=O)(O)O)[C@H](N)C(=O)O; pS = N[C@@H](COP(=O)(O)O)C(=O)O
Experiments:
[1] = target: T1, Skp1-FBXW7 complex (Homo sapiens, UniProt P63208+Q969H0); assay: Fluorescence polarization competitive protein-peptide binding assay; settings: for binding affinity to purified FBXW7 in vitro: FP based quantitative in vitro binding assay, result in words; for Kd: FP competition of unlabeled peptide against 50 nM CF-labeled CCNE peptide at ~60-80% complex formation, 20 mM Tris pH 8.0, 100 mM NaCl, 0.05% Brij35P, 2 mM TCEP, value with error
T1 construct: human FBXW7 (263-707) with an N-terminal hexa-histidine (His6) tag; His6 (N, cleaved yes); made in house; host or cells: E. coli Rosetta (DE3)
T1 sequence (Q969H0 263-707): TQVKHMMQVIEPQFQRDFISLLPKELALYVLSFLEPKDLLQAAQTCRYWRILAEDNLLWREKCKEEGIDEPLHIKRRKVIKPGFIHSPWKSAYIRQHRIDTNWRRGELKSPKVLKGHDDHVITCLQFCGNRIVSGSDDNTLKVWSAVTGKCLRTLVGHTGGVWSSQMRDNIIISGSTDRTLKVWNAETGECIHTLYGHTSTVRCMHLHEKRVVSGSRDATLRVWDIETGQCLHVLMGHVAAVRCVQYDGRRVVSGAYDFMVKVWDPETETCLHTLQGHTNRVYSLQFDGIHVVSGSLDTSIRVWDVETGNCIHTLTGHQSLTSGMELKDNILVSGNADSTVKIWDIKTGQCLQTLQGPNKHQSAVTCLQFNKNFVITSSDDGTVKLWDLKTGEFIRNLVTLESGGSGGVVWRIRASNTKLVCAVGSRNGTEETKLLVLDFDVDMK
T1 sequence (P63208 1-149 partner limits assumed): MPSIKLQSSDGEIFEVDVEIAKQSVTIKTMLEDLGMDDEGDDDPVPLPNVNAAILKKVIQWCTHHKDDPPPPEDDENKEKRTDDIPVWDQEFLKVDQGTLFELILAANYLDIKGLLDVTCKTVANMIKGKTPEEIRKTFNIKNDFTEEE
Description: Truncated Skp1 (1-149) and human FBXW7 (263-707) with an N-terminal hexa-histidine (His6) tag were cloned into a bicistronic plasmid (pMG950) and were co-expressed in E. coli Rosetta (DE3) strain. The Skp1-FBXW7 complex was purified using affinity, anion exchange, and gel filtration chromatography. The DNA expression plasmid was transformed into E. coli Rosetta (DE3) strain and grown in LB until OD600 = 0.5, protein expression was induced with 100 µM isopropyl-β-d-1-thigalatopyaranoside (IPTG) overnight at 18 °C. The cell pellet was lysed, and the recombinant protein was purified using Ni-NTA agarose beads. Before further purification the His6-tag was removed by using the TEV protease and then the protein complex was further purified using anion exchange chromatography twice, first with a Resource Q and then with a Mono Q column (pH = 8). Finally, the complex was subjected to size-exclusion chromatography in 20 mM Tris, pH = 8, 150 mM NaCl, and 1 mM DTT using a Superdex200 10/300 column (GE Healthcare, Chicago, IL, USA). The eluted fractions were pooled together and were supplemented with 10% glycerol and 2 mM TCEP before concentration and storage.
Fluoresce polarization (FP) based protein–peptide binding affinity measurements were carried out using 50 nM carboxyfluorescein (CF) labeled CCNE peptide (CF-PSGLLpTPPQpSGKKQ) and data were fit to a direct or a competitive binding equation using OriginPro 2018 as described earlier. For the direct measurements the concentration of Skp1-FBXW7 complex was increased in a titration experiment and then the binding affinity (Ki) of the unlabeled peptide was determined by titrating the Skp1-FBXW7: labelled peptide complex sample, at a concentration corresponding to ~60–80% complex formation, with increasing amounts of unlabeled peptide. All the FP measurements were performed in 20 mM Tris (pH 8.0), 100 mM NaCl, 0.05% Brij35P, and 2 mM TCEP using a Cytation^TM 3 (BioTek Instruments) plate reader (384-well plates in 20 µL binding reaction volume). Peptides were chemically synthesized and were ordered from GenScript.

[2] = tested on: FBXW7; assay: Ratiometric EGFP/DsRed protein degradation assay with degron probes; assay type: cell-based, human; settings: putative degron motif in EGFP-fused probe with AAKG2 MAPK docking motif; HEK293T, 48 h after transfection, EGFP/DsRed ratio with and without FBXW7 plasmid; search cycles 1-4
Text: In order to be able to test putative phosphodegron motifs, a ratiometric protein level monitoring method was adapted to monitor MAPK controlled FBXW7 mediated protein degradation. Briefly, intact DsRed and an EGFP-chimera were expressed in HEK293T cells in equal amounts from an expression plasmid, giving an EGFP/DsRed fluorescence ratio close to one under non-degrading conditions. EGFP was fused to a probe comprised of a putative degron sequence and a known MAPK binding docking motif. EGFP signal is expected to diminish faster than DsRed in cells with more FBXW7 if the probe responded to degradation.
We started out from an intentionally general consensus motif of FBXW7 degrons, inspired by the liberal [TS]P..[TS]P pattern defined for yeast Cdc4 substrates, and scanned the human disordered part of the proteome using SliMSearch4 (the disorder score cut-off was 0.4 and flank length was 5). In all, 22 motifs from this list were subjectively chosen and tested in the ratiometric degradation assay giving only 5 positives (see Supplementary Table S1). Based on the results of this first round, by taking information both from the identified positives and negatives, the consensus motif definition was narrowed to requiring a proline at P + 2, but motifs were allowed to have a phospho-mimicking residue (D or E) at P + 4 because it had been formerly reported that this second phosphorylatable residue may be replaced by aspartate or glutamate. […] In the third round, hydrophobic amino acids were more strictly required at positions −1/−2 and P − 1/2/3 positions were further narrowed and P + 4 position was relaxed based on the identified negatives, which gave a higher hit rate (4 out of 6). This third round gave functional motifs at a good rate, but the used motif definition was very restrictive compared to other known motifs. Finally, in the fourth round, we gave up using an optimal consensus and established the positional relaxation model. […] Hits on this final, most predictive list are presented in Supplementary Table S2. All entries were filtered for motif locations by UniProt annotations, discarding all enzyme-inaccessible (e.g., extracellular) instances. Motifs that had any overlapping PFAM domain indicated were manually assessed using the AlphaFold EBI website. Out of these, only motifs that were highly accessible and located outside of confidently predicted folded domains were kept. We also added kinase consensus compatibility to every motif and the number of experiments where phosphorylation could be detected from PhosphoSitePlus.
The chimera degron module was ordered from IDT as gene Block (gBlock). It consisted of a coiled coil dimerization motif (GCN4: EELLSKNYHLENEVARLKK) to increase sensitivity by allowing multivalent binding, a MAPK binding docking motif (AAKG2: KKNASQKRRSLRVHIPDL), and the CycECO degron motif. The motifs were separated by Gly-Ser-Asn linkers and the gBlock was designed so that the motifs could be easily changed by using unique sets of restriction endonucleases. The gBlock was sub-cloned into the Gateway pENTR4 entry plasmid (Thermo Fisher, Waltham, MA, USA) using restriction enzymes (SalI and NotI). The pENTR4-chimera and the destination plasmid (MSCV-CMV-DsRed-IRES-EGFP-DEST from Addgene; 41941), [28]) were subjected to gateway cloning using LR clonase II enzyme (Invitrogen) to obtain the first DsRed-EGFP-chimera DNA construct containing the cycECO degron. Oligonucleotides corresponding to different degron sequences and docking motifs were ligated into the DsRed-EGFP-chimera DNA construct. The list of all the oligonucleotides used for cloning is provided in Supplementary Table S3. pcDNA3-FLAG-FBXW7α was a kind gift from Michael Pagano (New York University). The FBXW7 arginine mutant (Arg mutant: R465C; R479Q; R505L) was created using two-step PCR and cloned into the pcDNA3-FLAG plasmid. […]

Compound | binding affinity to purified FBXW7 in vitro [1] | Kd [1] [µM] | Outcome [2]
TANLPPSPPPSPASEQT [MAP2, putative FBXW7 degron motif tested as EGFP-fused degradation probe] |  |  | Positive (tested positive, where +FBXW7/control protein level ratio was lower than 1)
TCPNSPSTPPSTPSPRV [SOS2, putative FBXW7 degron motif tested as EGFP-fused degradation probe] |  |  | Negative
TEPRSSPSPPPSPTEPE [CUX2, putative FBXW7 degron motif tested as EGFP-fused degradation probe] |  |  | Negative
TTVTPPGTPPMR [KSR2-b, putative FBXW7 degron motif tested as EGFP-fused degradation probe] |  |  | Negative
VAVSPTPPVSPEVRST [CEP164, putative FBXW7 degron motif tested as EGFP-fused degradation probe] |  |  | Negative
VKRTLPSPPPEEAHLP [BSN, putative FBXW7 degron motif tested as EGFP-fused degradation probe] |  |  | Negative

Further lines, with some results ahead:

binding affinity to purified FBXW7 in vitro [1] | Kd [1] [µM] | Compound | Outcome [2]
low nanomolar | 0.0177 ± 0.0006 | CC(C)C[C@H](NC(=O)[C@@H](NC(=O)[C@H](CO)NC(=O)[C@H](CC(N)=O)NC(=O)[C@@H](N)CO)C(C)C)C(=O)N[C@@H](CC(N)=O)C(=O)N[C@H](C(=O)N1CCC[C@H]1C(=O)N1CCC[C@H]1C(=O)N[C@H](C(=O)N[C@H](C(=O)N1CCC[C@H]1C(=O)N[C@@H](CCC(=O)O)C(=O)N[C@@H](CO)C(=O)N1CCC[C@H]1C(=O)O)[C@@H](C)OP(=O)(O)O)[C@@H](C)O)[C@@H](C)OP(=O)(O)O [ARID4B] (H-SNSVLN[pT]PPT[pT]PESP-OH) | 
low nanomolar | 0.0161 ± 0.0021 | CC(C)C[C@H](NC(=O)[C@@H]1CCCN1C(=O)[C@H](CCCCN)NC(=O)[C@H](Cc1ccccc1)NC(=O)CNC(=O)[C@@H](N)CO)C(=O)N[C@H](C(=O)N1CCC[C@H]1C(=O)N1CCC[C@H]1C(=O)N[C@H](C(=O)N[C@H](C(=O)N1CCC[C@H]1C(=O)N[C@@H](CC(C)C)C(=O)N[C@@H](CO)C(=O)N1CCC[C@H]1C(=O)O)[C@@H](C)OP(=O)(O)O)[C@@H](C)O)[C@@H](C)OP(=O)(O)O [ETV5] (H-SGFKPL[pT]PPT[pT]PLSP-OH) | 
low nanomolar | 0.0297 ± 0.0032 | CC[C@H](C)[C@H](NC(=O)[C@@H]1CCCN1C(=O)[C@@H]1CCCN1C(=O)[C@@H](NC(=O)[C@@H](NC(=O)[C@@H]1CCCN1C(=O)[C@@H]1CCCN1C(=O)[C@@H](NC(=O)[C@H](CC(C)C)NC(=O)[C@H](CO)NC(=O)CNC(=O)[C@H](CO)NC(=O)[C@H](CO)NC(=O)[C@@H](N)Cc1c[nH]cn1)[C@@H](C)OP(=O)(O)O)C(C)C)[C@@H](C)OP(=O)(O)O)C(=O)N[C@H](C(=O)O)[C@@H](C)O [JAZF1] (H-HSSGSL[pT]PPV[pT]PPIT-OH) | 
low nanomolar | 0.0028 ± 0.0002 | CSCC[C@H](NC(=O)[C@@H]1CCCN1C(=O)[C@@H](NC(=O)[C@H](CCC(=O)O)NC(=O)[C@@H]1CCCN1C(=O)[C@@H]1CCCN1C(=O)[C@@H](NC(=O)[C@H](Cc1ccc(O)cc1)NC(=O)[C@H](CC(C)C)NC(=O)[C@H](CC(N)=O)NC(=O)[C@H](CC(C)C)NC(=O)[C@H](CCCCN)NC(=O)[C@@H](N)Cc1ccccc1)[C@@H](C)OP(=O)(O)O)[C@@H](C)OP(=O)(O)O)C(=O)N[C@@H](CCC(=O)O)C(=O)N1CCC[C@H]1C(=O)O [KAT6B] (H-FKLNLY[pT]PPE[pT]PMEP-OH) | 
low nanomolar | 0.011 ± 0.001 | CSCC[C@H](NC(=O)CNC(=O)[C@H](Cc1c[nH]cn1)NC(=O)[C@@H](N)[C@@H](C)O)C(=O)N[C@@H](CCSC)C(=O)N[C@@H](CC(C)C)C(=O)N[C@H](C(=O)N1CCC[C@H]1C(=O)N1CCC[C@H]1C(=O)N[C@@H](CO)C(=O)N[C@@H](COP(=O)(O)O)C(=O)N1CCC[C@H]1C(=O)N[C@@H](CC(C)C)C(=O)N[C@@H](CCC(=O)O)C(=O)N[C@@H](CC(C)C)C(=O)O)[C@@H](C)OP(=O)(O)O [KLF4] (H-THGMML[pT]PPS[pS]PLEL-OH) | 
low nanomolar | 0.0523 ± 0.0026 | CSCC[C@H](NC(=O)[C@@H]1CCCN1C(=O)[C@@H]1CCCN1C(=O)[C@@H](NC(=O)[C@@H]1CCCN1C(=O)[C@H](CC(N)=O)NC(=O)CNC(=O)[C@@H]1CCCN1C(=O)[C@@H](NC(=O)[C@@H]1CCCN1)C(C)C)[C@@H](C)OP(=O)(O)O)C(=O)N[C@H](C(=O)N1CCC[C@H]1C(=O)NCC(=O)N[C@@H](CO)C(=O)N[C@@H](CO)C(=O)O)[C@@H](C)OP(=O)(O)O [ZMIZ1] (H-PVPGNP[pT]PPM[pT]PGSS-OH) | 
low micromolar |  | LGPPPGLLTPPVATELSQN [CCAR2, synthetic peptide of the CCAR2 motif, P + 4 nonphospho class] | Positive (tested positive, where +FBXW7/control protein level ratio was lower than 1)

Source: publication PMC8955265, “Systematic Discovery of FBXW7-Binding Phosphodegrons Highlights Mitogen-Activated Protein Kinases as Important Regulators of Intracellular Protein Levels” (International Journal of Molecular Sciences, 2022)
